Assay results: patent publication US20250360138A1 (priority 2022, published 2025)
Entries after “also recorded” stand apart in the source; their conditions may differ. Where two headings read alike, the source gives them in different places. Values belong to the molecule of their own block, whether it stands above or below them.

Experiments:
[1] = system: HEK293T; experiment: Mammalian cytotoxicity counter screen, luminescent ATP viability assay; assay type: cell-based, human; details: toxicity in mammalian cell cultures versus G. lamblia GS-clone 7 trophozoites
Protocol: Mammalian cytotoxicity assays. Mammalian cell lines were used for counter screening for general cytotoxicity of hit compounds from the primary screen: human embryonic kidney cells (HEK293T; ATCC CRL-3216) was used in a luminescent ATP assay for detection of cell viability.
Data analysis. Relative luminescence units (RLU) values were analyzed in Genedata Screener (v13.0-Standard). RLU was normalized to neutral controls minus inhibitors (DMSO-treated wells minus metronidazole-treated wells). For single-point primary assay plates, an additional run-wise median correction was applied to reduce screen artifacts, whereas no corrections were applied to triplicate dose response plates. For the mammalian cytotoxicity assays, RLU was uploaded into Genedata Screener, and the data was normalized to DMSO-treated wells minus puromycin-treated wells.

[2] = system: G. lamblia GS-clone H7 trophozoites; experiment: G. lamblia GS-clone H7 trophozoite growth, ATP-based bioluminescence (BacTiter-Glo) primary screen and dose response; assay type: cell-based; details: read-out: Anti-Giardia EC50
[3] = system: G. lamblia WB6 (Assemblage A); experiment: Cell growth inhibition against G. lamblia WB6; assay type: cell-based, Giardia lamblia
Protocol: (§1) Giardia lamblia culture. G. lamblia WB6 strain, G. lamblia CBG99 strain, metronidazole-resistant strain 713-M3 and G. lamblia (Lambl) Alexeieff trophozoites (GS-clone H7; ATCC 50581) used for the primary screening were maintained in modified TYI-S-33 medium (ATCC 2695) and assayed as earlier described (Keister, 1983, Trans R Soc Trop Med Hyg 77: 487-488). Subsequent assays, including the mouse model of infection, used the G. lamblia click beetle green (CBG99) strain which was grown and assayed as previously described (Michaels et al., 2020, J Antimicrob Chemother 75:1218-1227; and Keister, 1983, Trans R Soc Trop Med Hyg 77:487-488).

[4] = system: metronidazole resistant 713-M3 strain; experiment: Cell growth inhibition against metronidazole resistant 713-M3 strain; assay type: cell-based, Giardia lamblia
Protocol: as §1

[5] = Resazurin-based viability assay, CRL-8155; assay type: cell-based; details: human, CRL-8155 lymphocytic cells; CRL-8155 cells
Protocol: (§2) Experimental details for the assays were earlier described (Love et al., 2017, PLoS Negl Trop Dis 11:e0005373). Compounds in the follow-up assays were also tested for the inhibition of CRL-8155 (human lymphocytic cells and human hepatocellular carcinoma cells (HepG2; ATCC HB-8065) in a resazurin-based viability assay as indicators of potential host cell toxicity. Assays were performed as previously reported (Vidadala et al., 2014, Eur J Med Chem 74:562-57).

[6] = Resazurin-based viability assay, HepG2; assay type: cell-based; details: human, HepG2 hepatocellular carcinoma cells
Protocol: as §2

[7] = system: G. lamblia CBG99; experiment: Luciferase reporter acute murine Giardia infection model, whole animal IVIS imaging; assay type: in vivo, Giardia lamblia
Source text: The method relies on a stable constitutive luciferase reporter, CBG99 (Click beetle green), that correlates with parasite load in vitro and in vivo. […] Only mice with confirmed infections are used in experiments.
All animal experiments were approved by the Institutional Animal Care and Use Committees at the University of Washington.
The method relies on a stable constitutive reporter, CBG99, that correlates with total parasite load.

[8] = Mouse pharmacokinetics, plasma concentration by LC-MS/MS; assay type: in vivo; details: for half-life: read-out: average half-life (t1/2); for Cmax: mouse plasma
Protocol: Methods for pharmacokinetic studies and analysis of mouse plasma compound concentrations by liquid chromatography with tandem mass spectrometry (LC-MS/MS) have previously been described (Hulverson et al., 2017, J Infect Dis 215:1275-1284; Ojo et al., 2012, J Clin Invest 122:2301-2305; and Schaefer et al., 2016, J Infect Dis 214:1856-1864). The pK studies was performed in groups of 3 mice per compound. […] Blood samples collected at intervals between 0.5 and 24 hours were separated and extracted with acetonitrile for measurement of compound concentrations by combined liquid chromatography-electrospray mass spectrometry (LC/ES-MS).

[9] = Clinical evaluation of overall health of mice in PK and efficacy studies; assay type: in vivo
[10] = Mouse pharmacokinetics, plasma concentration by LC-MS/MS; assay type: in vivo; details: infected mice, all treatment groups, days 6 and 7 post-infection (24 and 48 hours after first dose)
[11] = adult humans, daily oral doses over 7 days; cited from earlier work
[12] = G. lamblia GS-clone H7 (Assemblage B) trophozoites, 48 hours, dose response

SMILES: CS(=O)(=O)Nc1ccc(C(=O)O[C@@H](Cc2c(Cl)c[n+]([O-])cc2Cl)c2ccc(OC(F)F)c(OCC3CC3)c2)cc1OCC1CC1 [CHF-6001]
Selectivity index (SI), CC50/EC50 [1]: > 12

SMILES: C=CC(=O)N[C@H]1CN(c2nc(Nc3cn(C)nc3OC)c3ncn(C)c3n2)C[C@@H]1F [Mavelertinib]
EC50 ([2]; Giardia duodenalis, 48 h): 2.34 µM
EC50 ([3]; Giardia duodenalis): 270 nM
EC50 ([4]; Giardia duodenalis): 70 nM
CC50 [5]: > 80 µM
CC50 [6]: > 80 µM
clearance of infection ([7]; IFN-γ-knockout mice, 1 mg/kg QD×4 days (days 6-9 p.i.), 1 mg/kg): None of the 1 mg/kg QD×4 days mice were relieved of their infection; also recorded: did not clear the infection after 4 doses
efficacy in the acute murine Giardia infection model ([7]; dosed as low as 5 mg/kg or as high as 50 mg/kg): efficacious; also recorded: effectively clears Giardia infection
clearance of infection ([7]; mice, 2.5 mg/kg QD×2 days): one of four mice remained infected
clearance of infection (luminescence signal) ([7]; mice, 5 mg/kg QD×2 days, 5 mg/kg): cleared the infection below the background signal; also recorded: absence of luminescence signal
clearance of infection (luminescence signal) ([7]; mice, 20 mg/kg QD×2 days, 20 mg/kg): cleared the infection below the background signal; also recorded: absence of luminescence signal
clearance of infection ([7]; mice, 50 mg/kg QD for 3 days, oral): appeared to clear the infection
clearance of infection (luminescence signal) ([7]; mice, 50 mg/kg QD×1 day, 50 mg/kg): cleared the infection below the background signal; also recorded: absence of luminescence signal
parasite rebound after treatment ([7]; mice, one week after the last therapeutic dose): parasites did not rebound
clearance of infection ([7]; mice, one- and two-day dosing of 50 mg/kg QD): all treated mice were cleared of infection and remained clear a week after dosing
half-life ([8]; in vivo, mouse, single oral 5 mg/kg): 239 min
Cmax ([8]; single oral 5 mg/kg): 0.63 µM
Cmax ([8]; single oral 20 mg/kg): 3.5 µM
Cmax ([8]; single oral 50 mg/kg): 9.3 µM
plasma level ([8]; mouse, 1 mg/kg QD, 1 mg/kg): barely detectable in the plasma of one mouse at 0.5 hours post dose and below the limit of detection at all subsequent time points
plasma concentration at 24 h post dose ([8]; mouse, all dosage groups, single dose): cleared from plasma by 24 hours; also recorded: below the detection limit
AUC ([8]; mouse, single oral 5 mg/kg): 89 µmol·min/L
Clearance ([8]; mouse, single oral 5 mg/kg): 0.015 L/min
AUC ([8]; mouse, single oral 20 mg/kg): 300 µmol·min/L
Clearance ([8]; mouse, single oral 20 mg/kg): 0.004 L/min
AUC ([8]; mouse, single oral 50 mg/kg): 812 µmol·min/L
Clearance ([8]; mouse, single oral 50 mg/kg): 0.0016 L/min
Tmax ([8]; plasma, oral, mouse, all doses): 30 min
half-life ([8]; plasma, mouse, single oral 20 mg/kg): 175 min
half-life ([8]; plasma, mouse, single oral 50 mg/kg): 126 min
signs of toxicity in mice [9]: no sign of toxicity; also recorded: no observable mavelertinib induced toxicology potentials
plasma trough levels [10]: below the limit of quantitation
daily oral dose causing diarrhea and skin toxicities as most common adverse events [11]: > 150 mg

SMILES: CS(=O)(=O)OCCN(CCBr)c1c(C(=O)NCCOP(=O)(O)O)cc([N+](=O)[O-])cc1[N+](=O)[O-] [PR-104]
EC50 [2, 12]: 1.98 µM

SMILES: CCN(CC)CCn1c(=O)c(Cc2ccc(OC)cc2)nc2ccccc21 [caroverine]
EC50 ([2]; Giardia duodenalis, G. lamblia GS-clone H7 (Assemblage B) trophozoites, 48 hours, dose response): 13.7 µM
Selectivity index (SI), CC50/EC50 [1]: > 2

SMILES: Cc1ncc([N+](=O)[O-])n1CCO [metronidazole]
clearance of infection ([7]; mice, 20 mg/kg QD×3 days): remained infected after treatment

SMILES: CC(=O)C[C@H]1CCCCN1 [pelletierine]
EC50 [2, 12]: 20.3 µM
EC50 [3]: > 25000 nM
EC50 ([4]; metronidazole resistant 713-M3, read-out: EC50): > 25000 nM

EC50 [2, 12]: 5.78 µM
SMILES: CCCN(CCC)c1ccc(N=Nc2ccccc2C(=O)O)cc1 [propyl red]
